Earlier results in article PMC7904743, “WIDOCK: a reactive docking protocol for virtual screening of covalent inhibitors” (Journal of Computer-Aided Molecular Design, 2021).
Like-named read-outs stand apart in the source and are kept apart here.

Legend:
[1] = thiol reactivity, cited from earlier work
OTUB2 = settings: experimental actives if % labeling higher than 50%, cited from earlier work
NUDT7 = settings: protein labeling at 200 μM; experimental actives if % labeling higher than 50%; cited from earlier work
[2] = natural log of average rate constant k
[3] = natural logarithm of average rate constant
[4] = natural log of average rate constant
[5] = natural log of average kinetic rate constant

SMILES | ln(avg k) [1, 2] | NUDT7 % labeling (NUDT7) [%] | further results
O=C(CCl)NC(=O)NCC1COc2ccccc2O1 (stereo not shown) [PCM-0102092, O=C(CCl)NC(=O)NCC1COc2ccccc2O1] | -15.940 | 0 | ln(avg k) [1, 3]: -15.940; OTUB2 % labeling (OTUB2): 0%
O=C(CCl)N1CCN(c2ncccn2)CC1 [PCM-0102093, O=C(CCl)N1CCN(c2ncccn2)CC1] | -15.547 | 0 | ln(avg k) [1, 3]: -15.547; OTUB2 % labeling (OTUB2): 0%
O=C(CCl)N1CCN(c2ccc([N+](=O)[O-])cc2)CC1 [PCM-0102094, O=C(CCl)N1CCN(c2ccc([N+](=O)[O-])cc2)CC1] | -15.009 | 27 | ln(avg k) [1, 3]: -15.009; OTUB2 % labeling (OTUB2): 0%
Cc1csc(CC(=O)NNC(=O)CCl)n1 [PCM-0102095, Cc1csc(CC(=O)NNC(=O)CCl)n1] | -16.857 | 0 | ln(avg k) [1, 3]: -16.857; OTUB2 % labeling (OTUB2): 51%
CC(NC(=O)CCl)c1ccc(Cl)c(Cl)c1 (stereo not shown) [PCM-0102096, CC(NC(=O)CCl)c1ccc(Cl)c(Cl)c1] | -16.200 | 51 | ln(avg k) [1, 3]: -16.200; OTUB2 % labeling (OTUB2): 26%
O=C(CCl)Nc1cccc2ncccc12 [PCM-0102097, O=C(CCl)Nc1cccc2ncccc12] | -16.130 | 0 | ln(avg k) [1, 3]: -16.130; OTUB2 % labeling (OTUB2): 42%
Cc1ccc([N+](=O)[O-])cc1NC(=O)CCl [PCM-0102098, Cc1ccc([N+](=O)[O-])cc1NC(=O)CCl] | -15.712 | 12 | ln(avg k) [1, 3]: -15.712; OTUB2 % labeling (OTUB2): 33%
Cc1c(C#N)c(NC(=O)CCl)n(-c2ccc(F)cc2)c1C [PCM-0102099, Cc1c(C#N)c(NC(=O)CCl)n(-c2ccc(F)cc2)c1C] | -15.940 | 17 | ln(avg k) [1, 3]: -15.940; OTUB2 % labeling (OTUB2): 0%
O=C(CCl)Nc1ccc(-c2nnc3n2CCCCC3)cc1 [PCM-0102101, O=C(CCl)Nc1ccc(-c2nnc3n2CCCCC3)cc1] | -15.815 | 0 | ln(avg k) [1, 3]: -15.815; OTUB2 % labeling (OTUB2): 28%
Cc1nc(NC(=O)CCl)sc1C [PCM-0102124, Cc1nc(NC(=O)CCl)sc1C] |  |  | ln(avg k) [1, 3]: -15.463; OTUB2 % labeling (OTUB2): 0%
N#CC1(NC(=O)CCl)CCCC1 [PCM-0102136, N#CC1(NC(=O)CCl)CCCC1] | -15.612 | 0 | 
O=C(CCl)Nc1ccc2[nH]c(C(F)(F)F)nc2c1 [PCM-0102151, O=C(CCl)Nc1ccc2[nH]c(C(F)(F)F)nc2c1] | -15.575 | 7 | 
Cc1cccc([N+](=O)[O-])c1NC(=O)CCl [PCM-0102176, Cc1cccc([N+](=O)[O-])c1NC(=O)CCl] | -16.601 | 22 | 
O=C(CCl)N1N=C(c2ccco2)CC1c1cccs1 (stereo not shown) [PCM-0102182, O=C(CCl)N1N=C(c2ccco2)CC1c1cccs1] |  |  | ln(avg k) [1, 3]: -14.540; OTUB2 % labeling (OTUB2): 0%
O=C(CCl)Nc1ccc(N2CCCCCC2)cc1 [PCM-0102199, O=C(CCl)Nc1ccc(N2CCCCCC2)cc1] | -15.785 | 8 | 
Cc1cccc(N2CCN(C(=O)CCl)CC2)c1C [PCM-0102215, Cc1cccc(N2CCN(C(=O)CCl)CC2)c1C] | -15.103 | 29 | 
O=C(CCl)Nc1c(Cl)cccc1Cl [PCM-0102234, O=C(CCl)Nc1c(Cl)cccc1Cl] | -17.086 | 64 | 
CC1CCN(c2ccc(NC(=O)CCl)cc2)CC1 [PCM-0102235, CC1CCN(c2ccc(NC(=O)CCl)cc2)CC1] | -16.035 | 0 | 
Cc1ccccc1CNC(=O)CCl [PCM-0102253, Cc1ccccc1CNC(=O)CCl] | -16.467 | 0 | 
COc1ccc(NC(=O)NC(=O)CCl)cc1 [PCM-0102268, COc1ccc(NC(=O)NC(=O)CCl)cc1] | -15.795 | 0 | 
Cc1cc(N2CCCC2)ccc1NC(=O)CCl [PCM-0102301, Cc1cc(N2CCCC2)ccc1NC(=O)CCl] | -16.271 | 24 | 
O=C(CCl)NC1CCCCCCC1 [PCM-0102318, O=C(CCl)NC1CCCCCCC1] | -16.468 | 0 | 
Cc1cc(NC(=O)CCl)n(C)n1 [PCM-0102383, Cc1cc(NC(=O)CCl)n(C)n1] | -15.428 | 0 | 
Cc1ccc(NC(=O)CCl)c(Cl)c1 [PCM-0102408, Cc1ccc(NC(=O)CCl)c(Cl)c1] | -16.426 | 18 | 

SMILES | ln(avg k) [1, 2] | NUDT7 % labeling (NUDT7) [%] | further results
O=C(CCl)Nc1nncs1 [PCM-0102427, O=C(CCl)Nc1nncs1] |  |  | ln(avg k) [1, 3]: -16.300; OTUB2 % labeling (OTUB2): 0%
CC1CCCCN1C(=O)CCl (stereo not shown) [PCM-0102434, CC1CCCCN1C(=O)CCl] | -15.958 | 0 | 
O=C(CCl)N1CCC2CCCCC2C1 (stereo not shown) [PCM-0102474, O=C(CCl)N1CCC2CCCCC2C1] |  |  | ln(avg k) [1, 3]: -15.859; OTUB2 % labeling (OTUB2): 0%
O=C(CCl)N1CCc2[nH]c3ccccc3c2C1 [PCM-0102591, O=C(CCl)N1CCc2[nH]c3ccccc3c2C1] | -14.023 | 22 | 
Cc1cc(NC(=O)CCl)ccc1Br [PCM-0102770, Cc1cc(NC(=O)CCl)ccc1Br] |  | 21 | ln(avg k) [1, 4]: -15.518
O=C(CCl)N(C1CC1)C1CCCc2ccccc21 (stereo not shown) [PCM-0102774, O=C(CCl)N(C1CC1)C1CCCc2ccccc21] |  |  | ln(avg k) [1, 5]: -16.197; OTUB2 % labeling (OTUB2; OTUB2 protein labeling): 0%
CC1CCC(N(C(=O)CCl)C2CC2)CC1 (stereo not shown) [PCM-0102792, CC1CCC(N(C(=O)CCl)C2CC2)CC1] |  | 13 | ln(avg k) [1, 4]: -16.001
O=C(CCl)Nc1ccc2c(c1)OC1(CCCC1)O2 [PCM-0102801, O=C(CCl)Nc1ccc2c(c1)OC1(CCCC1)O2] |  | 10 | ln(avg k) [1, 4]: -15.785
O=C(CCl)Nc1ccc(N2CCCCC2)nc1 [PCM-0102812, O=C(CCl)Nc1ccc(N2CCCCC2)nc1] |  | 14 | ln(avg k) [1, 4]: -15.797
O=C(CCl)NC1CCC2(CC1)OCCO2 [PCM-0102820, O=C(CCl)NC1CCC2(CC1)OCCO2] |  |  | ln(avg k) [1, 5]: -16.468; OTUB2 % labeling (OTUB2; OTUB2 protein labeling): 13%
CN(C)c1ccc(NC(=O)CCl)cc1 [PCM-0102859, CN(C)c1ccc(NC(=O)CCl)cc1] |  | 0 | ln(avg k) [1, 4]: -14.235
O=C(CCl)NC1CCC(C(F)(F)F)CC1 (stereo not shown) [PCM-0102864, O=C(CCl)NC1CCC(C(F)(F)F)CC1] |  | 0 | ln(avg k) [1, 4]: -16.404
C=CC(=O)Nc1nc(-c2ccc(O)cc2)cs1 [PCM-0102884, C=CC(=O)Nc1nc(-c2ccc(O)cc2)cs1] |  |  | ln(avg k) [1, 5]: -17.011; OTUB2 % labeling (OTUB2; OTUB2 protein labeling): 0%
O=C(CCl)Nc1ccc2c(c1)NC(=O)CO2 [PCM-0102890, O=C(CCl)Nc1ccc2c(c1)NC(=O)CO2] |  | 8 | OTUB2 % labeling (OTUB2; OTUB2 protein labeling): 32%
O=C(CCl)Nc1ccccc1O [PCM-0102907, O=C(CCl)Nc1ccccc1O] |  | 36 | ln(avg k) [1, 4]: -17.265
Cc1ccccc1CN1CCCN(C(=O)CCl)CC1 [PCM-0102911, Cc1ccccc1CN1CCCN(C(=O)CCl)CC1] |  | 0 | OTUB2 % labeling (OTUB2; OTUB2 protein labeling): 0%
CC(=O)NC1CCCN(C(=O)CCl)C1 (stereo not shown) [PCM-0102934, CC(=O)NC1CCCN(C(=O)CCl)C1] |  | 0 | ln(avg k) [1, 4]: -15.534
CN(Cc1cccc(Cl)c1)C(=O)CCl [PCM-0102976, CN(Cc1cccc(Cl)c1)C(=O)CCl] |  |  | ln(avg k) [1, 5]: -16.166; OTUB2 % labeling (OTUB2; OTUB2 protein labeling): 0%
O=C(CCl)Nc1nc(-c2ccco2)cs1 [PCM-0102979, O=C(CCl)Nc1nc(-c2ccco2)cs1] |  | 25 | ln(avg k) [1, 4]: -15.876
CC(NC(=O)CCl)C(=O)O (stereo not shown) [PCM-0102990, CC(NC(=O)CCl)C(=O)O] |  | 0 | ln(avg k) [1, 4]: -18.115
O=C(CCl)NCC#Cc1ccccc1 [PCM-0103007, O=C(CCl)NCC#Cc1ccccc1] |  |  | ln(avg k) [1, 5]: -16.727; OTUB2 % labeling (OTUB2; OTUB2 protein labeling): 60%
Cc1ccc(NC(=O)CCl)c(C)c1 [PCM-0103041, Cc1ccc(NC(=O)CCl)c(C)c1] |  | 0 | ln(avg k) [1, 4]: -16.644
Cc1ccc(CN2CCCN(C(=O)CCl)CC2)cc1 [PCM-0103056, Cc1ccc(CN2CCCN(C(=O)CCl)CC2)cc1] |  | 0 | OTUB2 % labeling (OTUB2; OTUB2 protein labeling): 0%
